Measurements: patent US20230192774A1, “IMM[…] POLYOMAVIRUSES” (The Council of the Queensland Institute of Medical Research, priority 2019, published 2023)
“Also recorded” adds a separate entry of the source.

Legend:
Format in all cases: cell-based, human
[1] = system: CD4^+ T cells; assay: intracellular cytokine assay of T cells expanded with synthetic JCV peptides; details: PBMC from healthy volunteers cultured 12-14 days with cytokines
Description: JCV-specific T cells were expanded in vitro following stimulation with pooled JCV epitopes. Specifically, PBMC from healthy volunteers were stimulated with synthetic JCV peptides (Table 1) for 1 hour and then cultured for 12-14 days in the presence of different cytokine combinations, including IL-2 (10 ng/ml), IL7 (10 ng/ml), IL12 (10 ng/ml) and/or IL15 (10 ng/ml). The JCV specificity of the expanded T cells was assessed using standard intracellular cytokine assays (Table 6).

[2] = system: HLA class II; assay: HLA class II restriction analysis with peptide-loaded LCLs, IFN-γ ICS assay; details: LCLs matching one single HLA allele of the donor loaded with peptide for 1 hour
Description: Specifically, the HLA class II-restriction of VDLHAFLSQAVFSNR (SEQ ID NO: 2) (LT29), FLSQAVFSNRTVASF (SEQ ID NO: 3) (LT30) and TVASFAVYTTKEKAQ (SEQ ID NO: 4) (LT32) peptides as HLA DRB1*10:01 is shown. Briefly, a panel of lymphoblastoid cells (LCLs) matching one single allele of the HLA type of the donor were chosen and loaded with respective peptide for 1 hour. The loaded LCLs were then used as stimulator cells in an IFN-γ ICS assay. The peptide, when presented by the MHC, elicits an IFN-γ response in JCV-specific T cells. […]

[3] = system: Peptide-specific T cells; assay: T cell cross-reactivity between JCV and BKV epitopes (intracellular cytokine assay); details: for BKV cross-reactivity: CD4^+ T cell responses to JCV peptides; for recognition of BKV and JCV peptide by T cells expanded with the epitope: expanded with one epitope, re-stimulated with JCV or BKV epitope, IFN-γ
From the text: ICS FACS plots show the expression of IFN-γ in T cells expanded with either BKV epitope (SSGTQQWRGLARYFK (SEQ ID NO: 33)) or JCV epitope (RSGSQQWRGLSRYFK (SEQ ID NO: 12)). These primed T cells were stimulated using both BKV and JCV peptide showing that the T cells expanded with either of these epitopes recognize both BKV and JCV peptide sequences.
Peptide-specific T cells were expanded in vitro following stimulation with JCV epitope or BKV epitope and then re-stimulated with the corresponding […] peptide epitope (see Table 2) so as to observe any cross-reactive response between JCV and BKV epitopes. Specifically, PBMC from healthy volunteers were cultured with synthetic JCV peptide epitope RSGSQQWRGLSRYFK (SEQ ID NO: 12) or with synthetic BKV peptide epitope SSGTQQWRGLARYFK (SEQ ID NO: 33). Following initial expansion, each sample was re-stimulated (re-called) with either JCV epitope RSGSQQWRGLSRYFK (SEQ ID NO: 12) or BKV epitope SSGTQQWRGLARYFK (SEQ ID NO: 33) (wherein samples re-called with the same epitope act as internal controls). The reactivity of the expanded T cells was assessed using standard intracellular cytokine assays (see FIG. 4).

[4] = system: JCV-specific T cells; assay: two-dimensional peptide matrix epitope mapping, IFN-γ ICS assay; details: FACS, individual LTA overlapping peptides
From the text: JCV-specific T cells expanded in vitro using the OPPs were further characterized by identifying specific T cell determinants. […] The response using the subpools were overlayed on a two dimensional matrix, thus showing the common individual peptides among the pools. […] Figure discloses SEQ ID NOS 2-4, respectively, in order of appearance.
In order to precisely map the HLA class I and class II-restricted T cell responses, individual overlapping peptides (15 aa long overlapping by 10 aa) were sourced for LTA, STA and VP1 proteins for T cell epitope mapping. A two-dimensional peptide matrix was used to distribute all individual peptides into small overlapping peptide pools. For example, in the case of Large T Antigen, the matrix is arranged such that each peptide of the pools (LTA1 to LTA24) occurs once on the ordinate. The T cell response for each pool was measured by intracellular cytokine-staining (ICS) IFN-γ assay (see FIG. 2A) and the data overlayed on a two dimensional matrix as follows.
Thus, the common individual peptides among pools that elicited a T cell response were identified, i.e., peptide 32 (P32) at the intersection of row LTA4 and column LTA16 and peptides P29 and P30 at the intersection of row LTA3 with columns LTA23 and LTA24.

Sequence | %IFNγ^+CD4^+ with 0.1 μg/ml peptide [1] | %IFNγ^+CD4^+ with 1 μg/ml peptide [1] | HLA Restriction [2] | BKV cross-reactivity [3] | T cell response for individual peptide in the IFN-γ ICS assay [4] | recognition of BKV and JCV peptide by T cells expanded with the epitope [3]
DPDMMRYVDKYGQLQ | 2.1% | 4.5% | DRB1*04:02 | Yes | – | –
EQYMAGVAWIHCLLP (listed as Betapolyomavirus secuhominis) | 2.5% | 2.9% | DRB1*04:01 &; also recorded: DRB1*03:01 | Yes | – | –
ERLNFELGVGIDQFM (listed as Betapolyomavirus secuhominis) | 2.2% | 6.32% | DRB1*15:01 | Yes | – | –
FLSQAVFSNRTVASF (listed as Betapolyomavirus secuhominis) | 34.1% | 38.39% | DRB1*10:01 | Yes | elicit a JCV-specific T cell response | –
GGHNILFFLTPHRHR (listed as Betapolyomavirus secuhominis) | 1.28% | 6.15% | DRB1*16:O1 | Yes | – | –
IDQFMVVFEDVKGTG (listed as Betapolyomavirus secuhominis) | 18.5% | 24.8% | DRB1*14:04/; also recorded: DQB1*05:03 | Yes | – | –
KMKRMNFLYKKMEQG (listed as Betapolyomavirus secuhominis) | 0.4% | 1.4% | DRB1*15:01 | Yes | – | –
LRSSPLVWIDCYCFD (listed as Betapolyomavirus secuhominis) | 0.4% | 1.81% | DRB1*15:01 | – | – | –
MDKVLNREESMELMD (listed as Betapolyomavirus secuhominis) [identical BKV homologue] | 1.65% | 5.26% | DRB1*01:01 | Yes | – | –
MTREEMLVERFNFLL (listed as Betapolyomavirus secuhominis) | 2% | 3.8% | DRB1*04:01 &; also recorded: DRB1*03:01 | Yes | – | –
NFLYKKMEQGVKVAH (listed as Betapolyomavirus secuhominis) | 0.2% | 1.2% | DRB1*15:01 | – | – | –
RKAYLKKCKELHPDK (listed as Betapolyomavirus secuhominis) | 9.2% | 10.4% | DRB1*13:01 | Yes | – | –
RNRKFLRSSPLVWID (listed as Betapolyomavirus secuhominis) | 0.6% | 3.03% | DRB1*15:01 | – | – | –
RSGSQQWRGLSRYFK | 7.8% | 8.4% | DRB1*11:01 | Yes | – | recognize both the BKV and JCV peptide sequence
RYWLFKGPIDSGKTT [identical BKV homologue] | 2.35% | 4.05% | DRB1*15:01 | Yes | – | –
SICQQAVDTVAAKQR (listed as Betapolyomavirus secuhominis) | 0.24% | 4.38% | DRB1*04:01 &; also recorded: DQB1*02:02 | Yes | – | –
SITEVECFLTPEMGD (listed as Betapolyomavirus secuhominis) | 2.8% | 2.71% | DRB1*01:01 &; also recorded: DQB1*05:01 | Yes | – | –
SKNQKSICQQAVDTV (listed as Betapolyomavirus secuhominis) [identical BKV homologue] | 0.41% | 2.31% | DRB1*04:01 &; also recorded: DQB1*02:02 | Yes | – | –
SSGTQQWRGLARYFK | – | – | – | – | – | recognize both the BKV and JCV peptide sequence
TCGNILMWEAVTLKT (listed as Betapolyomavirus secuhominis) | 2.65% | 4.83% | DRB1*15:01 | Yes | – | –
TVASFAVYTTKEKAQ (listed as Betapolyomavirus secuhominis) | 6.4% | 7.34% | DRB1*10:01 | Yes | elicit a JCV-specific T cell response | –
VDLHAFLSQAVFSNR (listed as Betapolyomavirus secuhominis) | 20.26% | 25.49% | DRB1*10:01 | Yes | elicit a JCV-specific T cell response | –
